{
  "source": "patent US8158389B2",
  "about": "“Products and methods for in vivo secretion of monatin” (priority 2005, dated 2012)",
  "tested_on": "E. coli BL21 DE3",
  "test": "Monatin excretion with sodium decanoate, E. coli BL21 DE3 with or without cysH deletion",
  "type": "cell-based, Escherichia coli",
  "conditions": "2.5 mM sodium decanoate, n = 2",
  "procedure": "For inoculum, the E. coli strains BL21 DE3 aspC proA pET32 and BL21 DE3 ΔcysH: : aspCproA pET32 were grown overnight at 37° C. and 250 rpm in Luria-Bertani (“LB”) medium with 100 μg/mL ampicillin.\nFor the experimental treatments, Trp-1+glucose medium, a minimal medium that has been used for increased production of tryptophan in E. coli cells (Zeman et al. Folia Microbiol. 35:200-204, (1990)), was prepared as follows. To 800 mL nanopure water the following reagents were added: 2 g (NH4)2SO4 and 13.6 g KH2PO4. The pH was adjusted to 7.0, the volume was increased to 948 mL, and the medium was autoclaved. Following sterilization, 0.2 g MgSO4.7H2O, 0.01 g CaCl2.2H2O, and 0.5 mg FeSO4.7H2O were ad to the medium in a 1.8 mL volume followed by addition of 0.2 mL of Neidhardt's micronutrient solution. Neidhardt, F. C., et al., “Culture medium for Enterobacteria,” J. Bacteriol. 119:736-746 (1974). Neidhardt's medium includes (per liter): 0.18 g (NH4)6(MO7)24.4H2O, 1.24 g H3BO3, 0.36 g CoCl2.6H2O, 0.12 g CuSO4 (anhydrous), 0.8 g MnCl2.4H2O, and 0.14 g ZnSO4.7H2O. A 50% glucose solution was prepared separately and sterile-filtered. Forty mL of glucose solution and 10 mL of 1 M 3-Morpholinopropanesulfonic acid (“MOPS”) buffer were added to the base medium (950 mL) for a 1 L final volume.\nConditions for the treatments included 250 rpm agitation throughout and 37° C. up to induction, then, 30° C. following induction. At an OD600 nm between 0.44-0.52, induction of the plasmid genes was initiated. At induction, 1.0 mM IPTG, 0.5 mM pyridoxine hydrochloride, and 0.2 mL's of Balch's vitamins were added. Additions of 10 g/L L-tryptophan, 10 g/L sodium pyruvate, 0.04 mM pyridoxal-5′-phosphate (“PLP”) and 0.2% Tween® 20 (polyoxyethylene 20-sorbitan monolaurate) were made 3.0 hours following induction. At 3 hours after the initial feeding of pyruvate, another 10 g/L of sodium pyruvate was added to each flask. Some treatments included 2.5 mM sodium decanoate (or sterile, distilled water for the 0 mM decanoate treatment) addition at 3.0 hours following induction.",
  "key": {"[1]": {"conditions": "E. coli BL21 DE3 aspC proA pET32"}, "[2]": {"conditions": "E. coli BL21 DE3 ΔcysH::aspC proA pET32"}},
  "data": [
    {"smiles": "CCCCCCCCCC(=O)[O-].[Na+]", "note": "[sodium decanoate]", "values": [
      {"measurement": "Monatin/dry cell wt., 24 hours", "setting": "[1]", "value": 70.9, "unit": "mg/g"},
      {"measurement": "Monatin/dry cell wt., 30 hours", "setting": "[1]", "value": 75.0, "unit": "mg/g"},
      {"measurement": "Monatin/dry cell wt., 48 hours", "setting": "[1]", "value": 44.0, "unit": "mg/g"},
      {"measurement": "Monatin/dry cell wt., 24 hours", "setting": "[2]", "value": 115.0, "unit": "mg/g"},
      {"measurement": "Monatin/dry cell wt., 30 hours", "setting": "[2]", "value": 103.1, "unit": "mg/g"},
      {"measurement": "Monatin/dry cell wt., 48 hours", "setting": "[2]", "value": 73.3, "unit": "mg/g"}
    ]}
  ]
}
